Assay results taken from patent US12296053B2, “Nanomaterials comprising triols” (Beam Therapeutics Inc., priority 2022, dated 2025).

Assays:
[1] = LNP hydrodynamic diameter and polydispersity index by dynamic light scattering (DLS); format: physicochemical; conditions: for Diameter (nm): hydrodynamic diameter of the LNP preparation with the ionizable lipid; for PDI: polydispersity index of the LNP preparation with the ionizable lipid
Procedure: (§1) A 3:1 ratio of aqueous to organic solvent was maintained during mixing using differential flow rates. After mixing, LNP preparations were collected and diluted in TBS (approximately 7:1 v/v), and further buffer exchange was conducted using dialysis in TBS at 4° C. for 8 to 24 hours against a 20 kDa filter. After this initial dialysis, each individual LNP preparation was characterized via dynamic light scattering (DLS) to measure size and polydispersity. pKa of a subpopulation of LNP preparations was measured via TNS assay.
DLS-LNP preparation hydrodynamic diameter and polydispersity index (PDI) was measured using high throughput dynamic light scattering (DLS) (DynaPro plate reader II, Wyatt). LNP preparations were diluted 1×PBS to an appropriate concentration and analyzed.

[2] = Encapsulation efficiency of LNP preparations (Ribogreen assay; Qubit, unlysed and lysed LNPs); format: physicochemical; conditions: LNP preparation with the ionizable lipid, ABE mRNA:sgRNA 1:1, except 7-1, 7-2, 7-6, 7-10 (unlysed and lysed LNPs, Qubit)
Procedure: (§2) Lipid nanoparticle components were dissolved in 100% ethanol at specified lipid component molar ratios. mRNA encoding an adenine base editor and a chemically-modified sgRNA was dissolved at a mass ratio of 1:1 in 50 mM citrate, pH 4.0, resulting in a concentration of NA cargo of approximately 0.1 mg/mL.
(§3) LNP preparations were formulated with molar ratios of 47.5% Ionizable Lipid: 40% Cholesterol: 2.5% PEG2000-DMG: 10% DSPC total lipid to NA molar ratio of 6 to 12.
(§4) LNP preparations were formed by microfluidic mixing of the lipid and NA solutions using Precision Nanosystems NanoAssemblr Ignite series Instruments, according to the manufacturer's protocol.
With the exception of LNPs comprising ionizable lipids 7-1, 7-2, 7-6, and 7-10, RNA concentration and encapsulation efficiency were determined by Ribogreen assay (BioTek Synergy LX plate reader). For LNPs comprising ionizable lipids 7-1, 7-2, 7-6, and 7-10, RNA concentration was determined by Qubit microRNA kit (for siRNA) or HS RNA kit (for mRNA) per manufacturer's instructions, and encapsulation efficiency was determined by measuring unlysed and lysed LNPs.

ALAS1 target site = experiment: Base editing in liver by LNP-delivered ABE mRNA and sgRNA, targeted deep sequencing; format: in vivo; conditions: LNP with the ionizable lipid, ABE mRNA + sgRNA targeting ALAS1 1:1; tail vein injection, Balb/c mice; 0.05 mg/kg; tissues four to six days post-dose
Procedure: as §2, §3, §4, §1
Male Balb/C mice aged approximately 8-12 weeks were used in the experiments described herein. […]
Age-matched mice were also used to administer vehicle (1×TBS) via tail vein injection as a control. Four to six days post-dose, tissues including liver, spleen, and bone marrow were collected. Base editing was determined by performing targeted deep sequencing analysis at the ALAS1 target site using extracted genomic DNA. Genomic DNA was isolated and fragmented and adapter-ligated using the Nextera DNA Flex Library Prep Kit (Illumina) using the 96-well plate Nextera indexing primers (Illumina), according to the manufacturer's instructions. Library size and concentration was confirmed by Fragment Analyzer (Agilent) and analyzed for whole genome sequencing using an Illumina HiSeq.

SMILES | Diameter (nm) [1] [nm] | PDI [1] | Encapsulation Efficiency (%) [2] [%] | % Editing in Liver (0.05 mpk) (ALAS1 target site) [%]
CC/C=C\CCCCOC(CCC(=O)OCC(COC(=O)CCCCCCC/C=C\C/C=C\CCCCC)COC(=O)OCC(CCCCCC)OC(=O)NCCN1CCCC1)OCCCC/C=C\CC (centres unmarked) [Compound 7-5, 12-(((4,4-bis(((Z)-oct-5-en-1-yl)oxy)butanoyl)oxy)methyl)-6-hexyl-4,9-dioxo-1-(pyrrolidin-1-yl)-5,8,10-trioxa-3-azatridecan-13-yl (9Z,12Z)-octadeca-9,12-dienoate] | 78.39 | 0.09 | 87.2 | 
CC/C=C\CCCCOC(CCC(=O)OCC(COC(=O)CCCCCCOC(=O)C(CCCC)CCCCCC)COC(=O)CCC(CCCCCC)OC(=O)NCCN1CCCC1)OCCCC/C=C\CC (centres unmarked) [Compound 7-7, 3-((4,4-bis(((Z)-oct-5-en-1-yl)oxy)butanoyl)oxy)-2-(((7-((2-butyloctanoyl)oxy)heptanoyl)oxy)methyl)propyl 4-(((2-(pyrrolidin-1-yl)ethyl)carbamoyl)oxy)decanoate] | 66.85 | 0.06 | 95.0 | 
CC/C=C\CCCCOC(CCC(=O)OCC(COC(=O)CCCCCCCOC(=O)C(CCCC)CCCCCC)COC(=O)OCC(CCCCCC)OC(=O)NCCN1CCCC1)OCCCC/C=C\CC (centres unmarked) [Compound 7-8, 12-(((4,4-bis(((Z)-oct-5-en-1-yl)oxy)butanoyl)oxy)methyl)-6-hexyl-4,9,15-trioxo-1-(pyrrolidin-1-yl)-5,8,10,14-tetraoxa-3-azadocosan-22-yl 2-butyloctanoate] | 62.8 | 0.07 | 95.5 | 14.8
CCCCCCCCOC(CCC(=O)OCC(COC(=O)CCCCCCOC(=O)C(CCCC)CCCCCC)COC(=O)CCC(CCCCCC)OC(=O)NCCN1CCCC1)OCCCCCCCC (centres unmarked) [Compound 7-11, 3-((4,4-bis(octyloxy)butanoyl)oxy)-2-(((7-((2-butyloctanoyl)oxy)heptanoyl)oxy)methyl)propyl 4-(((2-(pyrrolidin-1-yl)ethyl)carbamoyl)oxy)decanoate] | 68.00 | 0.10 | 99.1 | 13.2
CC/C=C\CCCCOC(CCC(=O)OCC(COC(=O)CCCCCCOC(=O)C(CCCC)CCCCCC)COC(=O)CCC(CC)OC(=O)NCCN1CCCC1)OCCCC/C=C\CC (centres unmarked) [Compound 7-20, 12-(((4,4-bis(((Z)-oct-5-en-1-yl)oxy)butanoyl)oxy)methyl)-6-ethyl-4,9,15-trioxo-1-(pyrrolidin-1-yl)-5,10,14-trioxa-3-azahenicosan-21-yl 2-butyloctanoate] | 84.26 | 0.06 | 99.4 | 
CC/C=C\CCCCOC(CCC(=O)OCC(COC(=O)CCCCCC(=O)OCCC(CCCCC)CCCCC)COC(=O)CCC(CC)OC(=O)NCCN1CCCC1)OCCCC/C=C\CC (centres unmarked) [Compound 7-24, 1-(3-((4,4-bis(((Z)-oct-5-en-1-yl)oxy)butanoyl)oxy)-2-(((4-(((2-(pyrrolidin-1-yl)ethyl)carbamoyl)oxy)hexanoyl)oxy)methyl)propyl) 7-(3-pentyloctyl) heptanedioate] | 84.01 | 0.09 | 85.9 | 
CC/C=C\CCCCOC(CCC(=O)OCC(COC(=O)CCCCCCOC(=O)C(CCCC)CCCCCC)COC(=O)CCC(CCCCCC)OC(=O)NCCN(C)CC)OCCCC/C=C\CC (centres unmarked) [Compound 7-43, 3-((4,4-bis(((Z)-oct-5-en-1-yl)oxy)butanoyl)oxy)-2-(((7-((2-butyloctanoyl)oxy)heptanoyl)oxy)methyl)propyl 4-(((2-(ethyl(methyl)amino)ethyl)carbamoyl)oxy)decanoate] | 114.2 | 0.11 | 89.2 | 

Second part, led by results:

Diameter (nm) [1] [nm] | PDI [1] | Encapsulation Efficiency (%) [2] [%] | SMILES | % Editing in Liver (0.05 mpk) (ALAS1 target site) [%]
64.70 | 0.14 | 97.5 | CCCCC/C=C\C/C=C\CCCCCCCC(=O)OCC(COC(=O)CCC(CCCCCC)OC(=O)NCCN1CCCC1)COC(=O)CCC(OCCCCCCCC)OCCCCCCCC (centres unmarked) [Compound 7-1, 3-((4,4-bis(octyloxy)butanoyl)oxy)-2-(((4-(((2-(pyrrolidin-1-yl)ethyl)carbamoyl)oxy)decanoyl)oxy)methyl)propyl (9Z,12Z)-octadeca-9,12-dienoate] | 
43.80 | 0.04 | 97.8 | CC/C=C\CCCCOC(CCC(=O)OCC(COC(=O)CCCCCCC/C=C\C/C=C\CCCCC)COC(=O)CCC(CCCCCC)OC(=O)NCCN1CCCC1)OCCCC/C=C\CC (centres unmarked) [Compound 7-2, 3-((4,4-bis(((Z)-oct-5-en-1-yl)oxy)butanoyl)oxy)-2-(((4-(((2-(pyrrolidin-1-yl)ethyl)carbamoyl)oxy)decanoyl)oxy)methyl)propyl (9Z,12Z)-octadeca-9,12-dienoate] | 
85.72 | 0.72 | 19.8 | CC/C=C\CCCCOC(CCC(=O)OCC(COC(=O)CCCCCCC/C=C\C/C=C\CCCCC)COC(=O)CCC(CCCCCC)OC(=O)OCCCN(C)C)OCCCC/C=C\CC (centres unmarked) [Compound 7-3, 15-(((4,4-bis(((Z)-oct-5-en-1-yl)oxy)butanoyl)oxy)methyl)-9-hexyl-2-methyl-7,12-dioxo-6,8,13-trioxa-2-azahexadecan-16-yl (9Z,12Z)-octadeca-9,12-dienoate] | 
85.01 | 0.08 | 91.3 | CC/C=C\CCCCOC(CCC(=O)OCC(COC(=O)CCCCCCCOC(=O)C(CCCC)CCCCCC)COC(=O)CCC(CCCCCC)OC(=O)NCCN1CCCC1)OCCCC/C=C\CC (centres unmarked) [Compound 7-6, 3-((4,4-bis(((Z)-oct-5-en-1-yl)oxy)butanoyl)oxy)-2-(((8-((2-butyloctanoyl)oxy)octanoyl)oxy)methyl)propyl 4-(((2-(pyrrolidin-1-yl)ethyl)carbamoyl)oxy)decanoate] | 
76.95 | 0.09 | 88.2 | CC/C=C\CCCCOC(CCC(=O)OCC(COC(=O)CCCCCCC/C=C\C/C=C\CCCCC)COC(=O)CCC(CCCCCC)OC(=O)OCCCN(CC)CC)OCCCC/C=C\CC (centres unmarked) [Compound 7-10, 16-(((4,4-bis(((Z)-oct-5-en-1-yl)oxy)butanoyl)oxy)methyl)-3-ethyl-10-hexyl-8,13-dioxo-7,9,14-trioxa-3-azaheptadecan-17-yl (9Z,12Z)-octadeca-9,12-dienoate] | 
83.43 | 0.03 | 99.2 | CC/C=C\CCCCOC(CCC(=O)OCC(COC(=O)CCCCCCOC(=O)C(CCCC)CCCCCC)COC(=O)CCC(CCC)OC(=O)NCCN1CCCC1)OCCCC/C=C\CC (centres unmarked) [Compound 7-21, 12-(((4,4-bis(((Z)-oct-5-en-1-yl)oxy)butanoyl)oxy)methyl)-4,9,15-trioxo-6-propyl-1-(pyrrolidin-1-yl)-5,10,14-trioxa-3-azahenicosan-21-yl 2-butyloctanoate] | 
60.05 | 0.11 | 98.5 | CC/C=C\CCCCOC(CCC(=O)OCC(COC(=O)CCCCCC(=O)OCCC(CCCCC)CCCCC)COC(=O)CCC(CCCC)OC(=O)NCCN1CCCC1)OCCCC/C=C\CC (centres unmarked) [Compound 7-26, 1-(3-((4,4-bis(((Z)-oct-5-en-1-yl)oxy)butanoyl)oxy)-2-(((4-(((2-(pyrrolidin-1-yl)ethyl)carbamoyl)oxy)octanoyl)oxy)methyl)propyl) 7-(3-pentyloctyl) heptanedioate] | 
74.80 | 0.09 | 99.2 | CC/C=C\CCCCOC(CCC(=O)OCC(COC(=O)CCCCCCOC(=O)C(CCCC)CCCCCC)COC(=O)CCC(C)OC(=O)NCCN1CCCC1)OCCCC/C=C\CC (centres unmarked) [Compound 7-28, 12-(((4,4-bis(((Z)-oct-5-en-1-yl)oxy)butanoyl)oxy)methyl)-6-methyl-4,9,15-trioxo-1-(pyrrolidin-1-yl)-5,10,14-trioxa-3-azahenicosan-21-yl 2-butyloctanoate] | 
